Experimental data taken from patent US20240408065A1, “CYANO COMPOUND, AND PREPARATION METHOD THEREFOR AND USE THEREOF” (SHANGHAI INSTITUTE OF MATERIA MEDICA, CHINESE ACADEMY OF …, priority 2021, published 2024).
Where “and” joins values, the source holds several entries; their conditions need not be identical. Identical values can stand only once.

Tests used:
SARS-CoV-2 3CLpro = biological target: T1, SARS-CoV-2 3CLpro (Severe acute respiratory syndrome coronavirus 2, UniProt P0DTD1); test: biochemical; conditions: protease 30 nM, substrate 20 μM
T1 construct: The SARS-CoV-2 3CL^pro protease and different concentrations of the compounds were added to a 96-well plate

[1] = test system: 47 safety-related targets; conditions: read-out: ECo on 47 safety-related targets
Source text: For the 78 tests related to the 47 safe targets, the experimental methods used include: cAMP assay, calcium flux assay, hormone nuclear receptor assay, kinase binding assay, enzyme activity assay, neurotransmitter transporter assay, ion channel assay, and transporter assay.

SARS-CoV-2 delta strain = conditions: mouse, in vivo
[2] = test system: SARS-CoV-2 B.1.351 strain; test: microbe, parasite or virus in culture; conditions: Severe acute respiratory syndrome coronavirus 2, Vero C1008, 24 h
in vitro = conditions: African green monkey
Procedure: In the cytotoxicity test, Vero E6 cells were digested and placed in a culture medium (90% DMEM, 10% fetal bovine serum), inoculated into a 96-well plate at 20000 cells per well, and cultured overnight. The compound to be tested was dissolved in DMSO to prepare a 40 mM stock solution, and further serially diluted with a culture medium or a culture medium containing 0.5 μM Pgp inhibitor to obtain the concentration required for the test.

[3] = test system: SARS-CoV-2 Omicron strain (B.1.1.529); test: microbe, parasite or virus in culture; conditions: Severe acute respiratory syndrome coronavirus 2, Vero C1008
[4] = cynomolgus monkey, in vivo

| Structure (SMILES) | IC50 (SARS-CoV-2 3CLpro) | also measured |
| --- | --- | --- |
| COC(=O)N[C@H](C(=O)N1CC2(C[C@H]1C(=O)N[C@H](C#N)C[C@@H]1CCNC1=O)SCCS2)C(C)(C)C [Compound 6] | 100 to 1000 nM | – |
| CC(C)(C)[C@H](NC(=O)c1cccnc1)C(=O)N1CC2(C[C@H]1C(=O)N[C@H](C#N)C[C@@H]1CCNC1=O)SCCS2 [Compound 12] | 1000 to 10000 nM | – |
| CC(C)(C)[C@H](NC(=O)C(F)(F)F)C(=O)N1C[C@H](Sc2ccccc2)C[C@H]1C(=O)N[C@H](C#N)C[C@@H]1CCNC1=O [Compound 19] | 1000 to 10000 nM | – |
| N#C[C@H](C[C@@H]1CCNC1=O)NC(=O)[C@@H]1CC2(CN1C(=O)[C@@H](NC(=O)C1(F)CC1)C1CCCC1)SCCS2 [Compound 21] | < 100 nM | – |
| CC(C)(C)[C@H](NC(=O)C(F)(F)C(F)(F)F)C(=O)N1CC2(C[C@H]1C(=O)N[C@H](C#N)C[C@@H]1CCCNC1=O)SCCS2 [Compound 22] | < 100 nM | – |
| CC(C)(C)[C@H](NC(=O)C1CC1)C(=O)N1CC2(C[C@H]1C(=O)N[C@H](C#N)C[C@@H]1CCNC1=O)SCCS2 [Compound 4] | < 100 nM | – |
| CC(C)(C)[C@H](NC(=O)CC(F)(F)F)C(=O)N1CC2(C[C@H]1C(=O)N[C@H](C#N)C[C@@H]1CCNC1=O)SCCS2 [Compound 11] | 100 to 1000 nM | – |
| CC(C)(C)OC(=O)N[C@H](C(=O)N1CC2(C[C@H]1C(=O)N[C@H](C#N)C[C@@H]1CCNC1=O)SCCS2)C(C)(C)C [Compound 1] | < 100 nM | – |
| CC(C)(C)[C@H](NC(=O)C(F)(F)F)C(=O)N1CC2(C[C@H]1C(=O)N[C@H](C#N)C[C@@H]1CCNC1=O)SCCS2 [Compound 2] | – | EC50 [1]: > 100000 nM; Viral load, brain tissue, Day 2 (SARS-CoV-2 delta strain): 0.77 ± 0.20 log10 copies/mg and 1.04 ± 0.24 log10 copies/mg; Viral load, lung tissue, Day 4 (SARS-CoV-2 delta strain): 7.88 ± 0.74 log10 copies/g and 7.48 ± 0.63 log10 copies/g; body weight of the mice (SARS-CoV-2 delta strain): did not decrease significantly; decrease of virus copy number in the lung compared with the model group (SARS-CoV-2 delta strain): 2.4 log 10 copies/g; decrease of virus titer in the lung compared with the model group (SARS-CoV-2 delta strain): more than 3 log 10 PFU/g; effect on virus titer in the lung (SARS-CoV-2 delta strain): sustained inhibitory effect; histopathological analysis of the lung (SARS-CoV-2 delta strain): significantly improved lung damage; virus titer in the brain (plaque test) (SARS-CoV-2 delta strain): no virus titer was determined; virus titer in the lung (plaque test) (SARS-CoV-2 delta strain): no titer was detected; EC50 [2]: 730 nM; CC50 (in vitro): > 500000 nM; IC50 [3]: 120 nM; arrhythmia [4]: no arrhythmia related to the test product; change in the cardiovascular system [4]: no change in the cardiovascular system related to the test product; changes in ECG parameters or blood pressure [4]: no changes in ECG parameters or blood pressure related to the test product |
| CC(C)(C)[C@H](NC(=O)c1c(F)c(F)c(F)c(F)c1F)C(=O)N1CC2(C[C@H]1C(=O)N[C@H](C#N)C[C@@H]1CCNC1=O)SCCS2 [Compound 20] | 100 to 1000 nM | – |
| CC(C)(C)[C@H](NC(=O)c1ccccc1)C(=O)N1CC2(C[C@H]1C(=O)N[C@H](C#N)C[C@@H]1CCNC1=O)SCCS2 [Compound 8] | 1000 to 10000 nM | – |
| CC(C)(C)[C@H](NC(=O)C(F)(F)C(F)(F)F)C(=O)N1CC2(C[C@H]1C(=O)N[C@H](C#N)C[C@@H]1CCNC1=O)SCCS2 [Compound 13] | < 100 nM | – |
| CC(C)(C)[C@H](NC(=O)C(F)(F)F)C(=O)N1CC2(C[C@H]1C(=O)N[C@H](C#N)C[C@@H]1CCNC1=O)OCCO2 [Compound 18] | < 100 nM | – |
| N#C[C@H](C[C@@H]1CCNC1=O)NC(=O)[C@@H]1CC2(CN1C(=O)[C@@H](NC(=O)C(F)(F)F)C1CCCC1)SCCS2 [Compound 14] | < 100 nM | – |
| CC(C)(C)[C@H](NS(=O)(=O)c1ccccc1)C(=O)N1CC2(C[C@H]1C(=O)N[C@H](C#N)C[C@@H]1CCNC1=O)SCCS2 [Compound 17] | 1000 to 10000 nM | – |
| Cc1cc(C)cc(C(=O)N[C@H](C(=O)N2CC3(C[C@H]2C(=O)N[C@H](C#N)C[C@@H]2CCNC2=O)SCCS3)C(C)(C)C)c1 [Compound 10] | 1000 to 10000 nM | – |
| CC(C)(C)[C@H](NC(=O)c1cc(C(F)(F)F)cc(C(F)(F)F)c1)C(=O)N1CC2(C[C@H]1C(=O)N[C@H](C#N)C[C@@H]1CCNC1=O)SCCS2 [Compound 9] | 1000 to 10000 nM | – |
| CC(=O)N[C@H](C(=O)N1CC2(C[C@H]1C(=O)N[C@H](C#N)C[C@@H]1CCNC1=O)SCCS2)C(C)(C)C [Compound 3] | < 100 nM | – |
| N#C[C@H](C[C@@H]1CCNC1=O)NC(=O)[C@@H]1CC2(CN1C(=O)[C@@H](NC(=O)C(F)(F)F)C13CC4CC(CC(C4)C1)C3)SCCS2 [Compound 23] | < 100 nM | – |
